Key:
[1] = molecular target: T1, CARD9-TRIM62 protein-protein interaction (Homo sapiens, UniProt Q9H257); experiment: Luminex bead-based ELISA CARD9-TRIM62 protein-protein interaction assay; format: binding
T1 construct: expressed in transfected cells; host or cells: HEK293F (Life Technologies, R790-07), separate transient transfections, cleared lysates
T1 sequence (Q9H257 1-536): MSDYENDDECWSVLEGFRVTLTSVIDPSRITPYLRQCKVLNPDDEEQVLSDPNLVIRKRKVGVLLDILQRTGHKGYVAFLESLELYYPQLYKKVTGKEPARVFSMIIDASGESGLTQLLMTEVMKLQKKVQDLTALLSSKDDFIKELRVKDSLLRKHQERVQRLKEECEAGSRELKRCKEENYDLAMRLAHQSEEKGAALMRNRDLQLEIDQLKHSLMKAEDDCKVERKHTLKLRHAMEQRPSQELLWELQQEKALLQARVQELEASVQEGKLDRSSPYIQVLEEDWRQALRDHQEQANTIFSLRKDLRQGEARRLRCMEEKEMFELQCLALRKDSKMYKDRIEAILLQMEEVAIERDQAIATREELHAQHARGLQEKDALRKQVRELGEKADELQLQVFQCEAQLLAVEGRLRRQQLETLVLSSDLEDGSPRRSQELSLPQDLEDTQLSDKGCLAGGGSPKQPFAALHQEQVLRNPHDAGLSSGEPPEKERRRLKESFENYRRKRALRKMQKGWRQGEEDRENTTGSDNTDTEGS
Description: Flag-StrepII-CARD9 and TRIM62 were purified as described (Cao et al). TRIM62ΔRING and B30.2/SPRY were expressed in Sf9 cells in pFastBac as His8 fusion. For Luminex assay, HEK293F cells were transfected with 3XMyc-TRIM62 in pCMV and separately with Flag-CARD9 in pcDNA4/TO. Anti-Myc tag antibody (9E10) was conjugated to the beads and used for TRIM62 affinity capture from cleared lysates. Following the incubation with compounds, Flag-CARD9 lysate was added; after a series of washes and secondary PE-conjugated antibody incubation, readout was performed on MagPlex instruments.
HEK293F (Life Technologies, R790-07) cells were grown in Freestyle media (Cat. #12338) according to manufacturer's instructions. Cells were transiently transfected with 3XMyc-TRIM62 in pCMV and separately with Flag-CARD9 in pcDNA4/TO. Anti-Myc tag antibody (9E10, Sigma) was conjugated to the Luminex beads (10 spectral range beads in 10 separate reactions) using Pierce reagents/Luminex coupling kit. Flag-CARD9 and Myc-TRIM62 transfected cells were separately lysed in the lysis buffer (50 mM Tris pH 7.4, 150 mM NaCl, 0.5% NP40, protease inhibitors (Complete, Roche, 11873580001), phosphatase inhibitors (PhosStop, Roche, 4906845001)) and cleared by centrifugation at 10,000 g. Cleared TRIM62 lysates were added to the beads for Myc-mediated capture, incubated at room temperature for 1 hr, then washed lx and reconstituted in 1% BSA in PBS.
Screening compounds were pre-dispensed into assay-ready plates (twintecc, Eppendorf; 50 nl of 10 mM compound stock in DMSO per well). Cleared CARD9 lysate (20 μl per well) was added to the assay-ready plate and pre-incubated with the screening compounds for 30 min before addition of TRIM62-bound beads (300 beads per well, in 5 μl of 1% BSA in PBS). Plates were mixed on Bioshake IQ at 2400 rpm for 2 min and incubated for 40 min at room temperature. Plates were then washed on Biomek NX^P instrument with magnetic plate holders 1× with 1% BSA in PBS. Each 10 plates with non-identical spectral regions of beads were combined into one deep-well plate, and incubated with Flag-PE antibody conjugate (Abcam, ab72469) at the final dilution 1:400 for 1 hr. After 1× wash with 1% BSA in PBS, the readout was performed on Luminex MagPlex instruments with standard operating protocol. Bead quantity per well was employed as quality control measure, wells with bead count less than 20 were rejected from the analysis.

[2] = molecular target: T2, ubiquitinylation of CARD9 by TRIM62 (Homo sapiens, UniProt Q9H257); experiment: AlphaLISA ubiquitinylation assay; format: biochemical; conditions: reconstituted E1-E2-E3 TRIM62 complex
T2 construct: Full-length Flag-StrepII-CARD9 for AlphaLISA, DSF and NMR assays was expressed as previously described; StrepII (N); made in house; UBE1 and UBE2D2 purchased from LifeSensors, no catalogue numbers
T2 sequence (Q9H257 1-536): T1 sequence (Q9H257 1-536)
Description: FlagStrep-CARD9 and TRIM62 were expressed and purified as previously described (Cao et al.). Assay-ready plates containing 80 nl of 10 mM compound in DMSO were used. Ubiquitinylation reactions contained 12.5 nM Flag-Strep-CARD9, 1.25 nM TRIM62, 500 nM ubiquitin, 10 nM UBE1 (LifeSensors), 200 nM UBE2D2 (LifeSensors), 50 mM Tris pH=7.5, 5 mM MgCl2, 2.5 mM ATP, 1 mM DTT, 0.005% Tween-20 in a final volume of 10 μl. To assemble reactions, all reaction components except ubiquitin and Trim62 were combined and dispensed at a 2× concentration in a volume of 5 μl using a Multi-Drop Combi Reagent Dispenser. Reactions were initiated by added ubiquitin and TRIM62 at a 2× concentration in a volume of 5 μL in the same manner. The reactions were incubated at ambient temperature for 90 min then stopped by the addition of 10 μl of 2× quench/detect solution using a 16-ViaFlow dispenser. The 2× quench/detect solution contained 100 mM HEPES pH=7.5, 300 mM NaCl, 0.01% Tween 20, 30 mM ETDA, 40 μg/ml Streptavidin-Donor beads, 10 μg/ml α-Flag-Acceptor beads (both from PerkinElmer) and 100 nM biotin-TUBE1 (LifeSensors). Plates were incubated at RT for an additional 1 h then read on a PerkinElmer Envision.

[3] = Truhit alphaLISA assay for non-specific alphaLISA inhibitors; conditions: percent AlphaLISA signal, 100% = DMSO control
From the text: Data are expressed as mean of percent AlphaLISA signal (100%=mean AlphaLISA signal with DMSO control)+/−s.d. […] The alphaLISA findings were further corroborated by TRIM62-mediated ubiquitinylation assay coupled with Western blot detection (FIG. 2E).

[4] = molecular target: T2, ubiquitinylation of CARD9 by TRIM62; experiment: TRIM62-mediated ubiquitinylation assay with Western blot detection; format: biochemical
Description: For western blot detection, ubiquitinylation reactions contained 250 nM Flag-Strep-CARD9, 5 nM TRIM62, 5 μM of HA-tagged ubiquitin (Boston Biochem), 25 nM UBE1 (LifeSensors), 300 nM UBE2D2 (LifeSensors), 50 mM Tris pH=7.5, 5 mM MgCl2, 2.5 mM ATP, 1 mM DTT in a final volume of 20 μl. Reactions were quenched by the addition of the LDS sample buffer with 50 mM DTT. HA antibody F-7 (Santa Cruz) was used for the detection of polyubiquitin chains, and Flag M2 antibody from Sigma was used to detect Flag-StrepII-CARD9 as a loading control.

[5] = test system: phosphorylation of IKK in primary bone marrow-derived dendritic cells; experiment: Phospho-IKK FACS in bone marrow-derived dendritic cells; format: cell-based, C57B/6 mice; conditions: 200 μM compound; stimuli scleroglucan (Dectin-1) or LPS (TLR4 control)
Description: (§1) THP-1 and HEK293T cells were from ATCC and cultured according to ATCC instructions. Cell cultures were regularly checked for mycoplasma contamination using a mycoplasma PCR test. BMDCs were isolated from femur and tibia of C57B/6 mice by harvesting bone marrows followed by hypotonic red blood cell lysis. Obtained bone marrow cells were cultured in DMEM (10% FBS, 1% penicillin/streptomycin, 1% glutamin) with 25 ng/ml GM-CSF.
For phospho-IKK FACS analysis, the BMDCs were plated on day 7 in U bottom 96-well plates at 150,000 cells/well in DMEM, 10% FBS, 1% penicillin/streptomycin, glutamine and GM-CSF the day before the assay. Growth media was replaced with reduced serum media (2% FBS), at this time compound 9 was added to the appropriate wells (at 200 μM) and cells were incubated for 2 hours. Cells were stimulated with 50 μg/ml scleroglucan (Invivogen) or 100 ng/ml LPS (Sigma) for the indicated times at 37° C. At the end of the incubation, media was aspirated and cells were fixed in 4% PFA for 10 min at 37° C.; then resuspended in blocking buffer (3% BSA in permeabilization buffer, eBioscience). […] FACS analysis was run on Cytoflex instrument (Beckman Coulter) and analyzed using FlowJo software by sequentially gating on live/single cells/MHCII high cell population.

[6] = test system: NF-κB activation in THP-1 cells; experiment: NF-κB luciferase reporter assay in THP-1 cells reconstituted with Dectin-1; format: cell-based; conditions: for WGP Dectin-1-mediated signaling to NF-κB, luciferase activity: WGP 50 μg/mL, 200 μM compound, 4-h time point
Description: as §1
CARD9 KO THP-1 cells were generated by a CRIPSR-based approach as previously described (Cao et al.). For the NF-κB luciferase assay, CARD9 KO or WT THP-1 cells lines were transduced with Dectin-1 (NM 022570) and a lentivirus-based NF-κB luciferase reporter, containing NF-κB responsive element upstream of minimal promoter and Luc2P54. CARD9 KO cells overexpressing Dectin-1 and the NF-κB luciferase reporter were rescued with indicated CARD9 constructs. For compound treatment, Compound 9 was pre-incubated with Dectin-1, NF-κB reporter expressing THP-1 cells for 2 hours, followed by stimulation with scleroglucan (50 μg/ml), whole glucan particles (WGP dispersible, Invivogen, 50 μg/ml), or LPS (100 ng/ml). Reporter luciferase activity was measured using Steadylite Plus reagent (PerkinElmer).

Molecule	inhibition of CARD9-TRIM62 protein-protein interaction (Luminex) [1]	inhibition of polyubiquitinylation of CARD9 by TRIM62 (AlphaLISA) [2]	non-specific alphaLISA inhibition (Truhit) [3]	inhibition of in vitro CARD9 ubiquitinylation (Western blot) [4]	phosphorylation of IKK (CARD9 signaling) [5]	WGP Dectin-1-mediated signaling to NF-κB, luciferase activity [6]	NF-κB activation, luciferase reporter ([6]; scleroglucan or LPS stimuli, 2 hr and 4 hr)	activation of Dectin-1-mediated signaling, NF-κB-driven luciferase reporter ([6]; 50 μg/mL WGP or scleroglucan)
Cc1ccc(C(=O)Nc2cnc(N3CCC(C(N)=O)(N4CCCCC4)CC3)c(C(=O)O)c2)cc1 [compound 9]	dose-dependent inhibitors	inhibit the functional ubiquitinylation of CARD9 by TRIM62	Nonspecific inhibition was not observed	inhibition of in vitro CARD9 ubiquitinylation reaction	attenuates CARD9 signaling in stimulus-dependent manner	inhibited	attenuates CARD9 signaling in stimulus-dependent manner	–
NC(=O)C1(N2CCCCC2)CCN(c2ccc(NC(=O)c3ccccc3F)cc2C(=O)O)CC1 [compound 11]	potent inhibitor	potent inhibitor	–	–	–	–	–	–
NC(=O)C1(N2CCCCC2)CCN(c2ncc(NC(=O)c3ccccc3)cc2C(=O)O)CC1 [compound 6]	dose-dependent inhibitors	inhibit the functional ubiquitinylation of CARD9 by TRIM62	Nonspecific inhibition was not observed	inhibition of in vitro CARD9 ubiquitinylation reaction	–	inhibited	–	–
NC(=O)C1(N2CCCCC2)CCN(c2ncc(NC(=O)c3cccc(Cl)c3)cc2C(=O)O)CC1 [compound 7]	dose-dependent inhibitors	inhibit the functional ubiquitinylation of CARD9 by TRIM62	Nonspecific inhibition was not observed	inhibition of in vitro CARD9 ubiquitinylation reaction	–	–	–	–
scleroglucan [reference compound]	–	–	–	–	–	–	–	more potent ligand than WGP
NC(=O)C1(N2CCCCC2)CCN(c2ncc(NC(=O)c3ccc(Cl)cc3)cc2C(=O)O)CC1 [compound 27]	dose-dependent inhibitors	inhibit the functional ubiquitinylation of CARD9 by TRIM62	Nonspecific inhibition was not observed	inhibition of in vitro CARD9 ubiquitinylation reaction	–	–	–	–
